In US6638974B1, “Ascorbyl esters for the treatment of cancer” (University of South Florida, priority 1999, dated 2003):

Legend:
[1] = mice; cited from earlier work
T98G cells [2] = assay: Cell multiplication cycle, T98G; type: cell-based, human; conditions: 50-175 μM Asc-S
Excerpt: Human glioma cell proliferation and tumorigrenicity are under autocrine control of the insulin like growth factor 1 (IGF-1) and its receptor (IGF-1R). Although it has been known for quite some time that ascorbic acid and its derivatives have anti-proliferative effects on various tumor cells, the precise mechanism of action is unknown. This study presents data on Ascorbyl Stearate (Asc-S) […] glioma (T98G) cell proliferation and transformation. Asc-S inhibited 10% fetal bovine serum (FBS) and human recombinant IGR-1 ([…]) dependent T98G cell proliferation in a dose dependent manner. […] The inhibition of IGF-1 Rs was also time and dose dependent.

PANC-1 cells [3] = assay: Apoptosis by in situ TUNEL assay, PANC-1; type: cell-based, human; conditions: 150 μM, 24 hours
Protocol: Detection of Apoptosis By In Situ Hybridization Using TUNEL Reaction: Apoptosis was determined by TdT-mediated dUTP nick end labeling (TUNEL) using an in situ cell death detection kit (Boehringer Mannheim, Indianapolis, Ind.). Asc-S treated and untreated PANC-1 cells were trypsinized and cytospin preparations were obtained. Cells were fixed with paraformaldehyde (4% in PBS, pH 7.4). After a rinse in PBS, the slides were incubated in permeabilization solution. Slides were cross-reacted with TUNEL reaction mixture for 60 minutes at 37° C. in a humidified chamber. Slides were thoroughly rinsed and reacted with alkaline phosphatase substrate solution for five to ten minutes (Vector Laboratories, Burlington, Mass.). The slides were analyzed under light microscope. These experiments were performed in duplicate.

T98G cells [4] = assay: Apoptosis by in situ TUNEL assay, T98G; type: cell-based, human; conditions: 100 μM, 24 hours
Protocol: Apoptosis by in situ TUNNEL assay: This experiment was designed to test the hypothesis that down regulation of IGF1-R facilitates apoptosis in T98G cells. […] In addition, to test whether Asc-S treatment induces apoptosis in normal cells, rat astrocyte cells in primary culture were treated with 100 μM Asc-S for 24 hours. […] The increased apoptosis in the Asc-S treated T98G cells is due to down regulation of IGF1-R.
In FIG. 10, apoptosis was evaluated by in situ immunohistochemical detection and quantification at a single cell level.

PANC-1 cells [5] = assay: Soft agar colony growth, PANC-1; type: cell-based, human; conditions: PANC-1, 150 μM Asc-S
Protocol: Soft agar experiments: To test the hypothesis that treatment of PANC-1 cells in culture with Asc-S reverses their transformed phenotype, the growth of PANC-1 was assessed in soft agar. PANC-1 cells were seeded at a density of 3×10^3/35 mm plate in 10% serum on a top layer of 0.3% agar and a bottom layer of 1% agar with and without the addition of 150 μM of Asc-S for 24 hours. The Asc-S was added to the top layer every day. Colonies greater than 125 microns in diameter (or ten cells) were counted at weekly intervals for 14-21 days. The clonogenicity was determined in three independent experiments comprising six replicates.

Ras (p21) = Ras (p21) expression by Western blot, PANC-1; type: cell-based, human; conditions: 150 μM, 24 hours
Protocol: PANC-1 cells were cultured for 24 hours in MEM+10% FBS and treated with 150 μM Asc-S for 24 hours, Asc-S treated and untreated (control). PANC-1 cells were analyzed by Western immunoblotting as follows: Cell lysates of treated and non-treated PANC-1 cells were obtained. The lysates were sonicated, centrifuged and protein concentration was determined with Pierce BCA protein kit (Pierce Laboratories). A 20 μg of protein was loaded and resolved at 4% to 15% polyacrylamide gradient gel by sodium dodecyl sulfate-polyacrylamide gel electrophoresis (SDS-PAGE) and electroblotted onto a nitrocellulose membrane […]. The membrane was immunoblotted with mouse anti-human IGF1-R antibodies to cross-react the 85 kDa β-subunit of the IGF1-R (Pharmingen, San Diego, Calif.) followed by anti-mouse horseradish peroxidase conjugated secondary antibody (ECL, Amersham Corporation, Arlington Heights, Ill.). Antigen bound to nitrocellulose membrane was detected with the ECL system (Amersham Corporation, Arlington Heights, Ill.). P6 cells (3T3 fibroblast cells, transfected with a CVN plasmid constituitively expressing human IGF1-R) were used as the positive control.
Effects of Asc-S on Ras expression in PANC-1 cells: The activation of the IGF1-R induces a cascade of phosphorylations including that of GDP to GTP with activation of the Ras pathway. […]

[6] = test system: mouse glioma cells (G-26); assay: Intracerebral G-26 glioma in C57BL/6 mice, survival; type: in vivo; conditions: C57BL/6 mice with intracerebral G-26 gliomas, oral 250 mg/Kg daily; controls 27±2 days
Protocol: In vivo administration of Asc-S (250 mg/Kg) on intracerebral gliomas in C57BL/6 mice: The C57BL/6 mice were implanted with mouse glioma cells (G-26) by stereotaxic intracerebral implantation. […] (FIGS. 11A and B).
The body weight profiles of those mice during the experiments are shown in (FIG. 11B). The median survival observed in this study is statistically significant (P<0.05).
In vivo administration of Asc-S (250 mg/Kg) on intracerebral gliomas in C57BL/6 mice. The C57BL/6 mice were implanted with mouse glioma cells (G-26) by stereotaxic intracerebral implantation.
The body weight profiles of those mice during the experiments are shown in (FIG. 17B). The median survival observed in this study is statistically significant (P<0.05).

PANC-1 cells [7] = assay: MTT cell growth and viability assay, PANC-1; type: cell-based, human; conditions: 50-175 μM Asc-S, 24 hours, MEM+10% FBS or serum free MEM+15 nM IGF-1
Protocol: PANC-1 Cell Culture: The human pancreatic ductal adenocarcinoma cell line PANC-1 was obtained from the American Type Culture Collection (Rockville, Md.). PANC-1 cells were cultured for 24 hours in Minimum Essential Medium (MEM) (Whitaker M A Bioproducts, Walkersville, Md.) supplemented with 10% fetal bovine serum (FBS) (Hyclone Laboratories, Logan, Utah) or serum free MEM+15 nM human recombinant IGF-1, penicillin (50 U/ml), streptomycin (50 μg/ml) and 1.0 mM L-glutamine.
Cell Growth and Vitality: The effect of Asc-S on PANC-1 and PC-1 cell growth and viability was evaluated by 3-(4,5-dimethylthiazol-2yl)-2,5-diphenyl-tetrazoliumbromide (MTT) (Sigma Chemical Co., St. Louis, Md.) assay and the details of the procedure are as described earlier (Naidu et al., 1993a) PANC-1 cells were seeded at 2.5×10^4 viable cells well in 0.1 ml MEM supplemented with 10% FBS or serum free MEM with 15 nM human recombinant IGF-1 in 96 multiwell tissue culture plates. The following day when the cells were nearly confluent, the medium was replaced with fresh medium and 50, 75, 100, 125, 150, 175 and 200 μM Asc-S were added and incubated in a CO2 incubator at 37° C. for 24 hours with respective untreated controls.

**Q.** With `CCCCCCCCCCCCCCCCCC(=O)OC[C@H](O)[C@H]1OC(=O)C(O)=C1O` [Asc-S, Ascorbyl stearate] as the compound, how does the LD50 [1] read?
**A.** 25000 mg/kg

**Q.** And the “cell multiplication cycle, T98G” value (T98G cells [2])?
**A.** arrest of cell multiplication cycle in G1/Go phase

**Q.** And the “apoptosis (in situ TUNEL), PANC-1” value (PANC-1 cells [3])?
**A.** significant increase in apoptosis

**Q.** What about the “apoptosis (in situ TUNEL), T98G cells” value (T98G cells [4]) of the same compound?
**A.** significant increase in apoptosis

**Q.** And the “soft agar colonies, 1st week” value (PANC-1 cells [5]; 1st week)?
**A.** 0 colonies

**Q.** What about the “soft agar colonies, 2nd week” value (PANC-1 cells [5]; 2nd week) of the same compound?
**A.** 15 colonies

**Q.** What about the “soft agar colonies, 3rd week” value (PANC-1 cells [5]; third week) of the same compound?
**A.** 50 colonies

**Q.** What about the “Ras (p21) expression, PANC-1” value (Ras (p21)) of the same compound?
**A.** significant inhibition

**Q.** What about the median survival [6] of the same compound?
**A.** 43 ± 2 days

**Q.** What about the “PANC-1 cell proliferation (MTT assay)” value (PANC-1 cells [7]) of the same compound?
**A.** inhibited cell proliferation in a dose dependent manner
